Key:
HT-29 cell line = test: 3D spheroid tumor formation and growth; assay type: cell-based, human; settings: for effect on growing tumors, treatment after spheroid formation: HT-29 spheroids, single dose 72 h after seeding, for additional 72 hours; for effect on tumor formation, treatment before tumor formation: 150 µM
Experimental: The spheroid formation potential of HT29 human colon cancer cell line was evaluated in 3D nonadherent culture condition. Initially the HT29 human cells were grown as a monolayer after which they were counted, re-suspended and plated with 1,500 cells per well in a 96-well plate pre-coated with a thin layer of 1.5% agarose (w/v) in McCoy's 5A medium containing 10% FBS and incubated at 37° C. in a humidified atmosphere of 5% CO2. Cell culture media was replaced every 2-3 days with fresh medium to remove cellular debris and the spheroids that were not well-formed. After the beginning of the multicellular tumor spheroid formation, the tested compounds were added at various concentrations (0.2, 0.4 and 0.6 mg/ml) and incubated for 24, 48 and 72 h. The number and diameter of colonies within each well were photographed and counted every day under the microscope (Olympus BX-51; Olympus, Hamburg, Germany), and the images of the representative fields were captured. Each sample was analyzed in triplicate, and all the experiments were performed three times. The viability of cells growing on the spheroids was measured by the APH (acid phosphatase) assay, which was performed according to manufacturer's instructions.
The cellular assays described above were performed in a monolayer system. Although monolayer systems partially reflect the microenvironment of cancer cells, there are currently more advanced culture methods that mimic in a better way the cellular interactions by the cells comprising the tumor (Freidrich, J. et. al.; Nat. Prot. 2009, 4, 309-324). […] This assay can be applied to test whether the compounds treatment is able of impairing tumors formation or alternately to test the effect of the treatment in growing tumors. HT-29 cell line was used for this model due to its capacity to form spheroids in vitro.

[1] = system: methicillin-resistant Staphylococcus aureus; settings: Ibrahim et al. 2009; cited from earlier work
leukemia = settings: Dimas et al. 2000; cited from earlier work

Compound | effect on growing tumors, treatment after spheroid formation (HT-29 cell line) | effect on tumor formation, treatment before tumor formation (HT-29 cell line) | also measured
N.N.O=C([O-])C1(C(=O)[O-])CCC1.[Pt+2] [carboplatin] | didn't generate any effect | – | –
C[C@@H]1O[C@@H](Oc2c(-c3ccc(O)cc3)oc3cc(O)cc(O)c3c2=O)[C@H](OC(=O)/C=C/c2ccc(O)cc2)[C@H](OC(=O)/C=C/c2ccc(O)cc2)[C@H]1O [Platanoside, platanoside] | – | – | anti-methicillin-resistant Staphylococcus aureus activity [1]: anti-methicillin-resistant Staphylococcus aureus; anti-leukemic activity (leukemia): active as an anti-leukemic agent
O=C1C[C@@H](c2ccc(O)cc2)Oc2cc(O)cc(O)c21 [naringenin] | – | no effect | –
O=C(O)/C=C/c1ccc(O)cc1 [p-coumaric acid] | – | no effect | –
CCc1c2c(nc3ccc(OC(=O)N4CCC(N5CCCCC5)CC4)cc13)-c1cc3c(c(=O)n1C2)COC(=O)[C@]3(O)CC [irinotecan] | didn't generate any effect | – | –

Source: patent US11344567B2, “Methods of treating cancer using platanoside and isomers thereof” (SHARE GAL RESEARCH AND DEVELOPMENT LTD, priority 2018, dated 2022)
